Measured values: patent US20030208035A1, “Antifungal and/or antibacterial peptides, preparation methods, compositions containing same and methods of treating mammals and/or plants” (priority 2000, published 2003)

What was measured:
[1] = system: Candida albicans (IHEM 8060 strain); assay: Candida albicans infected model, lethal in mice (disseminated candidiasis); assay type: in vivo; conditions: FIGS. 2-3; for median mortality, time after infection / morbidity score at day 7: 4 injections; for morbidity score at day 7: 50 = all 10 mice healthy
Description: Heliomycin and its analogues were tested for in vivo antifungal activity in a model infected with Candida albicans, lethal in mice. The pathogenic agent Candida albicans (IHEM 8060 strain) was inoculated by intravenous route (i.v.) at a dose of 2.5×10^6 CFU/mouse. the peptides were administered by i.v. route in 4 injections 6 h, 24 h, 48 h and 72 h after infection. Assessment criteria for activity were evaluation of survival and morbidity at 7 days. The morbidity scores, which take into account general state of health (condition of fur, mobility, hydration) were determined for each mouse with values ranging from 0 to 5 and defined below: 0=dead, 1=moribund, 2=very ill, 3=ill, 4=slightly ill, 5=healthy. The sum of the individual scores was calculated for each group, a score of 50 for a group of 10 mice meaning that all the mice were healthy.
Following a standard protocol, groups of 10 Swiss OF1 male mice weighing 12 g were infected via i.v. route with a dose of 2.5×10^6 CFU/mouse. Heliomycin and Ard1 were administered by i.v. route in 4 injections, 6 h, 24 h, 48 h and 72 h after infection. For each peptide, 2 doses were tested: 10 mg/kg and 30 mg/kg. A placebo group was injected with peptide solvent, 0.9% sodium chloride.
In this experiment, inoculation of the mice with 2.5.10^6 CFU/mouse was 50% lethal at day 5 in the group which received placebo treatment. The first deaths occurred on post-infection day 2.5 and median mortality occurred on post-infection day 5. On day 7, 5 mice were alive and the morbidity score 15/50.
In this experiment, inoculation of Swiss OF1 mice weighing 15 g with 3.10^6 CFU of Candida albicans induces 50% mortality on day 4 after infection in the group treated with the placebo. The first deaths occur 2.5 days after infection, and 100% of the mice were dead on day 5.5.
In this experiment, inoculation of the mice with 2.5.10^6 CFU/mouse was 50% lethal at day 5 and 100% at day 8 for mice in the placebo group. The first death occurred 3 days after infection. The morbidity score fell rapidly below 30/50 (25/50 at day 2.5).
The pEM35 peptide was administered at doses of 10 and 30 mg/kg/injection with 3 daily doses for 4 days (1 h, 5 h and 10 h post-infection on day 0; at 8 h, 14 h and 20 h on days 1, 2 and 3), i.e., daily doses totalling 30 and 90 mg/kg.

Candida albicans = assay: anti-Candida albicans growth inhibition test in liquid medium (96-well microplates); assay type: cell-based; conditions: for Activity C.a. (relative activity in relation to heliomycin): fold relative to heliomycin; for Activity C.a. (relative activity in relation to Ard1): fold relative to Ard1
Description: (§1) The anti-Candida albicans and anti-Aspergillus fumigatus activities of the different analogues were assessed using a growth inhibition test in liquid medium made in 96-well microplates. The activity of the purified peptides was tested for different dilutions of each peptide and was compared with those of heliomycin and Ard1 quantified under the same conditions.
The activity test was made directly on yeasts derived from a stock frozen at −80° C., in Sabouraud medium containing 15% glycerol. The density of the yeasts in the stock was adjusted to an optical density of 0.4 OD at 600 nm. After slow thawing at room temperature, the yeast suspension was reduced by dilution to an optic density of 1 mOD at 600 nm in Sabouraud medium, and 90 μl of this dilution were deposited in the wells of microtitration plates in the presence of 10 μl of sample to be tested. Control samples were systematically made in which 10 μl of sample were replaced by 10 μl of sterile water. Media sterility was controlled by incubating 10 μl sterile water in the presence of 90 μl of medium. The samples were incubated at 30° C. for 40 h under slight stirring and the antifungal activity was quantified by measuring optic density at 600 nm.

Aspergillus fumigatus = assay: anti-Aspergillus fumigatus growth inhibition test in liquid medium (96-well microplates); assay type: cell-based; conditions: for Activity A.f. (relative activity in relation to heliomycin): fold relative to heliomycin; for Activity A.f. (relative activity in relation to Ard1): fold relative to Ard1
Description: as §1
The spores of Aspergillus fumigatus were derived from a stock frozen at −80° C., containing 10^7 spores/ml in a 25% glycerol solution. After slow thawing at room temperature, the spores were placed in suspension in PDB culture medium (12 g Potato Dextrose Broth medium, per […] water). 10 μl of each sample were deposited in the wells of microtitration plates in the presence of 90 μl PDB culture medium supplemented with tetracycline (100 μg/ml) and cefotaxime (1 μg/ml) containing the spores (at a final concentration of 1000 spores/well). Control cultures were systematically made in which 10 μl of sample were replaced by 10 μl of sterile water. Media sterility was controlled by incubating 10 μl sterile water in the presence of 90 μl of medium. The samples were incubated at 37° C. for 24 h to 48 h in a humid atmosphere, and the antifungal activity was quantified by a score of 0 to 9 taking germination account; the size and morphology of the hyphs were determined under the binocular microscope. […].

Compound | Activity C.a. (relative activity in relation to heliomycin) (Candida albicans) | Activity A.f. (relative activity in relation to heliomycin) (Aspergillus fumigatus) | Activity C.a. (relative activity in relation to Ard1) (Candida albicans) | Activity A.f. (relative activity in relation to Ard1) (Aspergillus fumigatus) | further results
Cc1cc(O)c2c3c4c(cc(O)c13)C(C)(C)C(=O)c1c(O)cc(O)c(c1-4)C2=O [Heliomycin, reference compound] |  |  |  |  | median mortality, time after infection ([1]; 10 mg/kg i.v.): 48 h; morbidity score at day 7 ([1]; 10 mg/kg i.v.): 0/50; median mortality, time after infection ([1]; 30 mg/kg i.v.): 60 h; morbidity score at day 7 ([1]; 30 mg/kg i.v.): 5/50; effect on survival rate ([1]; 2.5×10^6 CFU/mouse i.v., 10 and 30 mg/kg i.v., 4 injections 6, 24, 48, 72 h, 10 mice, placebo 100% lethal day 4): no significant effect
DKLIGSCVWGAVNYTRDCNGECKRRGYKGGHCGSFANVNCWCET [pEM42, peptide derived from heliomycin] | 8 | 1 |  |  | 
DKLIGSCVWGAVNYTRNCNAECKRRGYKGGHCGSFANVNCWCET [pEM50, peptide derived from Ard1] |  |  | 1-2 | 1 | 
DKLIGSCVWGAVNYTSDCNGECKRRGYKGGHCGSFANINCWCET [pEM23, peptide derived from heliomycin] | 1 | 2 |  |  | 
DKLIGSCVWGAVNYTSDCNGECKRRGYKGGHCGSFANVNCWCER [pEM7, peptide derived from heliomycin] | 4-8 | 1 |  |  | 
DKLIGSCVWGAVNYTSDCNGECKRRGYKGGHCGSFANVNCWCQT [pEM21, peptide derived from heliomycin] | 2 | 10-20 |  |  | 
DKLIGSCVWGAVNYTSDCNGECKRRGYKGGHCGSFINVNCWCET [pEM22, peptide derived from heliomycin] | 1-2 | 4-8 |  |  | 
DKLIGSCVWGAVNYTSDCNGECKRRGYKGGHCGSFLNVNCWCET [pEM25, peptide derived from heliomycin] | 10 | 6 |  |  | 
DKLIGSCVWGAVNYTSDCRGECKRRGYKGGHCGSFANVNCWCET [pEM44, peptide derived from heliomycin] | 8 | 2 |  |  | 
DKLIGSCVWGAVNYTSNCNAECKRRGYKGGHCGSFANINCWCET [pEM33, peptide derived from Ard1] |  |  | 1 | 1 | 
DKLIGSCVWGAVNYTSNCNAECKRRGYKGGHCGSFINVNCWCER [pEM49, peptide derived from Ard1] |  |  | 3 | 1-2 | 
DKLIGSCVWGAVNYTSNCNAECKRRGYKGGHCGSFINVNCWCET [pEM32, peptide derived from Ard1] |  |  | 1 | 2 | 
DKLIGSCVWGAVNYTSNCNAECKRRGYKGGHCGSFINVNCWCQT [pEM47, peptide derived from Ard1] |  |  | 2-4 | 8 | 
DKLIGSCVWGAVNYTSNCNAECKRRGYKGGHCGSFLNINCWCET [pEM34, peptide derived from Ard1] |  |  | 4 | 4 | 
DKLIGSCVWGAVNYTSRCNAECKRRGYKGGHCGSFANVNCWCET [pEM52, peptide derived from Ard1] |  |  | 1-2 | 0.5 | 
DKLIGSCVWGAVNYTTDCNGECKRRGYKGGHCGSFANVNCWCET [pEM43, peptide derived from heliomycin] | 1 | 2 |  |  | 
DKLIGSCVWLAVNYTSNCNAECKRRGYKGGHCGSFANVNCWCET [pEM56, peptide derived from Ard1] |  |  | 1-2 | 0.5 | 
NKLIGSCVWGAVNYTSDCNGECKRRGYKGGHCGSFANVNCWCET [pEM37, peptide derived from heliomycin] | 2 |  |  |  | 
